Experimental data taken from PMC12767106, “In Situ Assembly of Transformable Monopeptide on Activated Neutrophils Attenuates NETs‐Induced Hepatocellular Carcinoma Metastasis by Disrupting NE Nuclear Translocation” (Advanced Science, 2025).

Key:
[1] = system: Hepa1-6/luc liver and lung metastasis; assay: Liver and lung metastasis model; assay type: in vivo, mouse; settings: Hepa1-6/luc cells via spleen or tail vein, 300 µM in 200 µL i.v. every two days, 16 days, n = 5
From the text: (§1) Submitted to Advanced Science
effector T cells (CD45+CD3+CD8+)/(CD45+CD3+CD4+), tumor cells were stained with anti-CD45-FITC
(Biolegend), anti-CD3ε-PerCP-Cy5.5 (Biolegend), anti-CD4-APC (Biolegend), and anti-CD8a-PE (Biolegend)
antibodies according to the standard protocol. For evaluation of NK cells (CD45+CD3-NK1.1+), tumor cells
were stained with anti-CD45-FITC (Biolegend), anti-CD3-PE (Biolegend) and anti-CD49b-APC (Biolegend)
antibodies and examined using flow cytometry. For MDSCs (CD45+CD11b+Gr-1+) analysis, tumor cells were
stained with anti-CD45-FITC, anti-CD11b-BrilliantViolet-510 (Biolegend), anti -F4/80-PE (Biolegend), and
anti-Gr-1-APC (Biolegend) antibodies for flow cytometry examination (BD FACS Canto SORP, USA). The
software FlowJo V10.6.2 was used for data analysis. To further explore the immunomodulatory effects of FTP-
NPs. Tumor tissues were harvested for immune profiling. Plasma cytokine levels, including IL-6, IL-10, and
TNF-α, were measured using commercially available ELISA kits to assess the immune activation induced by
Experimental liver and lung metastasis model
Six-week-old male C57BL/6J mice (20–25 g) were used to establish liver and lung metastasis models. Hepa1-
6/luc cells (1 × 10^6 cells) were injected into the spleen or tail vein of the mice to induce liver or lung
metastasis, respectively. For the liver metastasis model, Hepa1-6/luc cells were injected into the spleen, allowing
tumor cells to circulate and establish metastases in the liver. For the lung metastasis model, Hepa1-6/luc cells
were injected via the tail vein, leading to the formation of metastases in the lungs. Following cell implantation, […]
euthanized, and metastases were assessed macroscopically. […]
injecting D-Luciferin (150 mg/kg) intraperitoneally, and tumor burden was quantified using the IVIS Spectrum […]
conducted, and metastatic lesions were assessed under an inverted microscope (Axiovert 200, Zeiss, Germany). […]
300 μM per injection) for mice. […] (b) Fluorescence quantized chart […]
experiments. Statistical significance was calculated by one-way ANOVA, *p < 0.050.(c, d) Photographs of lung […]

[2] = molecular target: T1, NE of activated neutrophils (Mus musculus, UniProt Q3UP87); assay: Quantitative analysis of NE activity (NETosis Assay Kit); assay type: cell-based; settings: activated neutrophils (PMA), 4 h, NPs 0-200 µM; FTP-NPs result stated at 50 µM
T1 construct: endogenous in cells
T1 sequence (Q3UP87 27-265): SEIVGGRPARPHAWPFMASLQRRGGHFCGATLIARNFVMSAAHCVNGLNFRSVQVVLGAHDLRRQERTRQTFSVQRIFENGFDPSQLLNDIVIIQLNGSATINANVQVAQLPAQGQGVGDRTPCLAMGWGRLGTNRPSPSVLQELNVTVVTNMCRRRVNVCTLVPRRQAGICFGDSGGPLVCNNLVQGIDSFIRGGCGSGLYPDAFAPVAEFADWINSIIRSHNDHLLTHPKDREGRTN
Protocol: as §1
Neutrophil Elastase Activity Assay
To evaluate the distribution of active NE on the surface and inside of neutrophils, we used a kit (AkrivisBio’s Neutrophil Elastase Activity Assay, MA-0156), seeded neutrophils in confocal microscopy dishes, and then treated them with NFTP-NPs (50 µM, medium: DMSO = 99:1, v/v), FTP-NPs (50 µM, medium: DMSO = 99:1, v/v), PMA+NFTP-NPs (50 µM, medium: DMSO = 99:1, v/v), and PMA+FTP-NPs (50 µM, medium: DMSO = 99:1, v/v) at 37°C. Because the Neutrophil elastase in the kit cleaves a concrete fluorogenic substrate which releases AFC, providing intense fluorescence, 50 μl of MeOSucc-AAPV-AFC mix (Assay Buffer: MeOSucc-AAPV-AFC = 48:2) was added at 4 h, and after incubation for 1 h, the samples were examined by CLSM (LSM980, Zeiss, Germany).
Quantitative analysis of NE activity […]
DMSO = 99:1, v/v) for 4 h to obtain the solution.35,36 Quantitative analysis was carried out by a NETosis Assay Kit (Cayman Chemical, USA).
Quantitative induction analysis of NETs in vitro […]
According to the manufacturer's instructions, MPO -DNA levels in cultured supernatant were analyzed by an ELISA kit (MEIMIAN, China).38 Briefly, samples were added to each well and incubated with anti -MPO and anti-DNA antibodies for 2 h at room temperature. […] The OD value w as then measured by a microplate

Substance | liver and lung metastasis (bioluminescent signals, number of metastatic foci) [1] | activity of NE [2]
PpIX-GFFVLK-EAIPMSIPPEVK [FTP-NPs] | weakened considerably and significantly lower | almost disappeared
PpIX-GGGAAK-EAIPMSIPPEVK [NFTP-NPs, nanoparticles of the non-fibrillar transformable control peptide NFTP] | obvious metastases | no significant effect
